Values quoted from earlier work in US8338423B2, “Compositions for the treatment of hyperphenylalaninemia” (Universidad de Zaragoza, priority 2007, dated 2012).

Molecular target: T1, wt-PAH (Homo sapiens, UniProt P00439)
T1 construct: made in house; host or cells: E. coli
T1 sequence (P00439 1-452): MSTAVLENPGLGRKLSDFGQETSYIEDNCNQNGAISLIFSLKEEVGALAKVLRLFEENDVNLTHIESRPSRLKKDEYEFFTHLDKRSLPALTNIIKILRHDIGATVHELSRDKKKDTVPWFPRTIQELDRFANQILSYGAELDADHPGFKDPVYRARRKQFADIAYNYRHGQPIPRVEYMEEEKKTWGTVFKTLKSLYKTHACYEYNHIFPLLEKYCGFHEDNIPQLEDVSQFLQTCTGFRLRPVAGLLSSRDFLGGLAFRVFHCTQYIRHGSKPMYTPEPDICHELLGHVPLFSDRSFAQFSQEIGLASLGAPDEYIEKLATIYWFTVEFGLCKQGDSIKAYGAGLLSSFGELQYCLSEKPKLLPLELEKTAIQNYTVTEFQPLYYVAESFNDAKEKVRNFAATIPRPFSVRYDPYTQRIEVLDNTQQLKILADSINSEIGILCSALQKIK
Conditions: comparison values; read-out: Kl of likely physiological inhibitors of PAH; cited from earlier work

Structure (SMILES): CC(O)C(O)C1CNc2c(nc(N)[nH]c2=O)N1 (stereo not drawn) [Compound 7S-BH4]
- Ki: 2 to 5 µM

Structure (SMILES): C[C@H](O)[C@H](O)C1=Nc2c(nc(N)[nH]c2=O)NC1 [BH2]
- Ki: ~17 µM
